Calls of active or inactive are those of the source. For most assays here, no stated cut-off is given here; in the data, actives have a measured EC50 and inactives only a lower limit.
Tests used:
Protein RecA = biological target: T1, Protein RecA (Mycobacterium tuberculosis, UniProt P9WHJ3); test: Fluorescence Cell-Free Homogeneous Dose Retest to Identify Inhibitors of RecA-Intein Splicing Activity. [Related pubchem assays (depositor defined):AID2097, AID2223, AID489010, AID492950]; type: functional
T1 sequence (P9WHJ3 whole entry): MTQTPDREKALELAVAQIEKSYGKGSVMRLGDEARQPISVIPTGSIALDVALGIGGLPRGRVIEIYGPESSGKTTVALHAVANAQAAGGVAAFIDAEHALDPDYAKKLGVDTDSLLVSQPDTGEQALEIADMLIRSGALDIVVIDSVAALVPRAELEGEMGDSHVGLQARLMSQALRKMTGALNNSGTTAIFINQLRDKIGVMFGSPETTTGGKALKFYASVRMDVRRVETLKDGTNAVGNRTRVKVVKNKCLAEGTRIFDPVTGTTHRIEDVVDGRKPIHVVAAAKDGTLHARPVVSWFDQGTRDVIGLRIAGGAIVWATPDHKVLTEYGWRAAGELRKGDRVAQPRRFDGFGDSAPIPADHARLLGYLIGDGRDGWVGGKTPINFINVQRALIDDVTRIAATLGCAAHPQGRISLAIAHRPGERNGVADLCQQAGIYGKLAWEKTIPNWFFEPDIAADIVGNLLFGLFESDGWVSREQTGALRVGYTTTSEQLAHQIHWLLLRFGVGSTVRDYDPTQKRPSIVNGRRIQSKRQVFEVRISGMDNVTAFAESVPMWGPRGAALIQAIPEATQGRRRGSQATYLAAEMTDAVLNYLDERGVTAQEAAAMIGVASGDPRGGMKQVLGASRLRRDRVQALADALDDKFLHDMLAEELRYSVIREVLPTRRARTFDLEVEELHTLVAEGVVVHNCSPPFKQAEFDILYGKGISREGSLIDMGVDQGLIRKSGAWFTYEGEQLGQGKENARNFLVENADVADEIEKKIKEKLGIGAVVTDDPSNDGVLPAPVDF

[1] = biological target: T2, Replicative DNA helicase DnaB (Mycobacterium tuberculosis, UniProt P9WMR3); test: DnaB intein splicing inhibitors, dose response, biochemical, cell-free fluorescence (AID 449749); type: functional
T2 sequence (P9WMR3 whole entry): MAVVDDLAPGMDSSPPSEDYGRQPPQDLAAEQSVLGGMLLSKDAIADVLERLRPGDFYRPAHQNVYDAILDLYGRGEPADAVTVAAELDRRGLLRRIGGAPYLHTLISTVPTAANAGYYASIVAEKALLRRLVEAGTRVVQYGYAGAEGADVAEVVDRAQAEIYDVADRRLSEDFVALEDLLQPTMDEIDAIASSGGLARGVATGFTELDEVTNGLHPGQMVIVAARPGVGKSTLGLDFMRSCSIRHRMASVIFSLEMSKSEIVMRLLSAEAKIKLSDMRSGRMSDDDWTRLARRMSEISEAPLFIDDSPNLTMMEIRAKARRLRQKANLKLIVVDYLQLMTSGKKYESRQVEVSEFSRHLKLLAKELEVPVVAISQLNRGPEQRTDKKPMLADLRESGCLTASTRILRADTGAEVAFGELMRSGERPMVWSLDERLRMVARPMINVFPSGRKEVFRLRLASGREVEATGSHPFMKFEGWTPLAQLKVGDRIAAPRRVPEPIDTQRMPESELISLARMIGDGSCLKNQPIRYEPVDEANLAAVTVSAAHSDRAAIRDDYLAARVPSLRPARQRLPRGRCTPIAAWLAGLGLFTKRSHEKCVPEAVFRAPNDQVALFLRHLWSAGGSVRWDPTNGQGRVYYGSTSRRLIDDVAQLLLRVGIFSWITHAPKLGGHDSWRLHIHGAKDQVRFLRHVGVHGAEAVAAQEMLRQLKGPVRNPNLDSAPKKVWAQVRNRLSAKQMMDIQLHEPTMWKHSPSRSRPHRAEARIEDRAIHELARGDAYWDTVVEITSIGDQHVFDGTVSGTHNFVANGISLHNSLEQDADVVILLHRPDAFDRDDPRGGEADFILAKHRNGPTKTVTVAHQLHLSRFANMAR

[2] = cytotoxicity toward NIH3T3 fibroblasts, dose response, counter-screen, cell-based, ATP luminescence, mouse fibroblasts (AID 2010); type: functional;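 further: cells exposed to compound for about 90 hours before reading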
[3] = inhibitors of intracellular T. cruzi replication, confirmation, NIH3T3 host cells, beta-gal luminescence (AID 2044); type: functional, cell-based;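 further: intracellular parasites grown in NIH/3T3 mouse fibroblasts as host cells; luminescent beta-galactosidase reporter signal from transgenic T. cruzi replicating inside host cells; inhibitors lower the luminescence signal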
Streptococcus = test: Group A Streptococcus viability loss, dose response, counter-screen for streptokinase expression inhibitor project, luminescence, BacTiterGlo (AID 1915); type: functional, organism-based;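 further: potency for reduction of bacterial viability or growth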
[4] = tested on: Streptococcus sp. 'group A'; test: growth inhibition of control SK(-) GAS strain, dose response, counter-screen for streptokinase expression inhibitor project, luminescence, kanamycin, BacTiterGlo, confirmation (AID 1900); type: functional, organism-based
Cytochrome P450 2C9 = Cytochrome P450 2C9 (Homo sapiens, UniProt P11712)
Cytochrome P450 2C9, sequence (P11712 whole entry): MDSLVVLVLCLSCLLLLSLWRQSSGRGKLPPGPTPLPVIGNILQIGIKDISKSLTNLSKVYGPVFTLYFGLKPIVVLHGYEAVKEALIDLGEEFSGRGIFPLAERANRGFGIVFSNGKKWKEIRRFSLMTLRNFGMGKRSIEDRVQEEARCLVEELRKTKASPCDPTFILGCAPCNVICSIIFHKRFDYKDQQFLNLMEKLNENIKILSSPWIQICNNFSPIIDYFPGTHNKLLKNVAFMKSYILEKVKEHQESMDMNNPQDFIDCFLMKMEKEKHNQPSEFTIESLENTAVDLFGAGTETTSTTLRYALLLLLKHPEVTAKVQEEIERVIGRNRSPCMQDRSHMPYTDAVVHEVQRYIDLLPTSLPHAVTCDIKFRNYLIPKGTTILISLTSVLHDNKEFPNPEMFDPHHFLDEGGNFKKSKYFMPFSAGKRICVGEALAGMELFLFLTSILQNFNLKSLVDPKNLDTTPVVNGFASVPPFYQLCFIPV

FC(F)(F)c1cccc(Oc2nc(-c3ccccc3)nnc2C(F)(F)F)c1
EC50 (Protein RecA): 0.76 µM (active) | AC50 [1]: 2.06 µM (active)

CCC1C(=O)N(c2nc(C)cc(C)n2)N=C1C (configuration not stated)
EC50 (Protein RecA): 3.3 µM (active) | AC50 [1]: 8.34 µM (active)

CC1=NN(Cc2ccccc2)C(=O)C1C(c1ccncc1)C(C#N)C#N (configuration not stated)
EC50 (Protein RecA): 3.52 µM (active) | AC50 [1]: 9.46 µM (active)

Cc1ccn2c(Nc3ccccc3C)c(-c3ccncc3)nc2c1
EC50 [2]: > 60 µM (not active) | EC50 [3]: 0.56 µM (active)

Cc1cc(N2C(=O)C(O)=C(C(=O)c3cc4ccccc4o3)C2c2cccc(Cl)c2)no1 (configuration not stated)
EC50 (Streptococcus): 5.36 µM (active) | EC50 [4]: 2.09 µM (active)

CC(O)CNc1nc2sc3c(c2c(=O)n1CCc1ccccc1)CCCCC3 (configuration not stated)
EC50 [2]: > 60 µM (not active) | EC50 [3]: 1.89 µM (active)

COc1cc(/C=C/C(=O)OCC(=O)Nc2ccccc2Sc2ccc(Cl)cc2)ccc1O
EC50 (Protein RecA): 3.62 µM (active) | AC50 [1]: > 380 µM (inactive)

Cc1ccc(N=C(S)c2nc3ccccc3[nH]2)c(C)c1
EC50 (Streptococcus): > 150 µM (not active) | EC50 [4]: 2.12 µM (active)

CN(C)[C@@H]1C(O)=C(C(N)=O)C(=O)[C@]2(O)C(O)=C3C(=O)c4c(O)cccc4[C@@](C)(O)[C@H]3[C@H](O)[C@@H]12
AC50 (Cytochrome P450 2C9): 5.01 µM (inconclusive)

CCOC(=O)CN1N=C(/C=C/c2ccc(C)cc2)CCC1=O
AC50 (Cytochrome P450 2C9): 28.2 µM (inconclusive)

C#CCOC(=O)c1ccccc1C(=O)n1nnc2ccccc21
EC50 (Protein RecA): 8.84 µM (active) | AC50 [1]: 6.81 µM (active)

O=C(CC[S+]([O-])NCc1ccccc1)NCc1ccccc1 (configuration not stated)
EC50 (Protein RecA): > 380 µM (inactive) | AC50 [1]: > 380 µM (inactive)

Cn1cc(C(=O)c2ccc(Cl)cc2Cl)cc1C(=O)O
AC50 (Cytochrome P450 2C9): 14.1 µM (inconclusive)

Cc1ccc(SCc2ccc(C(=O)Nc3cccc([N+](=O)[O-])c3C)cc2)cc1
EC50 [2]: > 30 µM (not active) | EC50 [3]: 1.67 µM (active)

O=C(Cn1cnc([N+](=O)[O-])n1)NCc1ccccc1
EC50 [2]: > 60 µM (not active) | EC50 [3]: 0.479 µM (active)

O=[N+]([O-])c1ccc(N2CCN(S(=O)(=O)c3ccc(Cl)c(Cl)c3)CC2)cc1NCCN1CCOCC1
EC50 [2]: > 60 µM (not active) | EC50 [3]: 1.68 µM (active)

O=C(NC(=S)NNC(=O)[C@H]1C[C@@H]1c1ccccc1)c1ccc(F)cc1
EC50 (Streptococcus): 1.87 µM (active) | EC50 [4]: 0.775 µM (active)

O=C(NCc1ccc2c(c1)OCO2)c1ccc(N2CCCCCC2)c([N+](=O)[O-])c1
EC50 [2]: > 60 µM (not active) | EC50 [3]: 0.709 µM (active)

Cc1nc(Nc2nc(O)cc(-c3ccccc3)n2)nc2ccccc12
EC50 (Streptococcus): 8.02 µM (active) | EC50 [4]: 4.95 µM (active)

COc1ccc(Nc2ncc3nc(-c4cccs4)c(=O)n(Cc4cccc(OC)c4)c3n2)cc1
AC50 (Cytochrome P450 2C9): 39.8 µM (inconclusive)

Cc1cc(C)c(C#N)c(SCc2nnc(-c3ccccc3[N+](=O)[O-])o2)n1
EC50 [2]: > 60 µM (not active) | EC50 [3]: 2.2 µM (active)

O=c1c2c3c(sc2n(CCN2CCCC2)c(=O)n1Cc1ccco1)CCCCC3
EC50 [2]: > 30 µM (not active) | EC50 [3]: 0.331 µM (active)

CCN1C(=O)c2c(C)nc3ccccc3c2C1=O
EC50 (Protein RecA): 0.781 µM (active) | AC50 [1]: 43.4 µM (active)

CN(C)CCC1CCN(c2cc(C#N)c(C#N)cc2[N+](=O)[O-])CC1
EC50 [2]: > 60 µM (not active) | EC50 [3]: 0.345 µM (active)

CC(C)c1ccc(C(=O)NC(=S)Nc2ccc3[nH]c(O)nc3c2)cc1
EC50 (Streptococcus): 53.6 µM (active) | EC50 [4]: 10.2 µM (active)

CC1CN(c2nc3ccccc3nc2C(C#N)C(=O)OC2CCCCC2)CC(C)O1 (configuration not stated)
EC50 [2]: 10.6 µM (active) | EC50 [3]: 1.15 µM (active)

O=C(CN(c1ccc(Br)cc1)S(=O)(=O)c1ccc(Cl)c([N+](=O)[O-])c1)NCCc1ccccc1
EC50 [2]: > 60 µM (not active) | EC50 [3]: 0.592 µM (active)

COc1ccc(C(=O)CSc2nc(O)cc(C(F)(F)F)c2C#N)cc1
EC50 (Streptococcus): 15.4 µM (active) | EC50 [4]: 3.58 µM (active)

CN1CCN(C2=C(Cl)C(=O)N(c3ccc(Cl)cc3)C2=O)CC1
EC50 (Protein RecA): 0.247 µM (active) | AC50 [1]: 1.07 µM (active)

O=C(NC1CCCC1)C(c1ccncc1)N(Cc1ccco1)C(=O)c1ccc(-c2ccccc2)[nH]1 (configuration not stated)
EC50 [2]: > 30 µM (not active) | EC50 [3]: 0.641 µM (active)

CN1CCc2nc(SCC(=O)Nc3ccc(OC(F)(F)F)cc3)c(C#N)c(-c3cccs3)c2C1
EC50 (Protein RecA): 2.33 µM (active) | AC50 [1]: > 380 µM (inactive)

CCOc1ccccc1Oc1coc2cc(OC(=O)c3ccco3)ccc2c1=O
EC50 (Protein RecA): 35.7 µM (active) | AC50 [1]: > 380 µM (inactive)

N#C/C(=C/N1CCOCC1)c1ccccc1
AC50 (Cytochrome P450 2C9): 28.2 µM (inconclusive)

CCNc1ncc2nc(-c3cn(C)c4ccccc34)c(=O)n(Cc3ccc(F)cc3)c2n1
AC50 (Cytochrome P450 2C9): 25.1 µM (inconclusive)

COc1ccc([N+](=O)[O-])cc1NC(=O)COC(=O)C1CC1
EC50 [2]: > 60 µM (inconclusive) | EC50 [3]: > 60 µM (not active)

O=C(O)CCc1ccc(-c2ccccc2)[nH]1
AC50 (Cytochrome P450 2C9): 3.16 µM (inconclusive)

CCOC(=O)C1(Cc2ccccc2)CCN(Cc2cnc(N3CCOCC3)s2)CC1
EC50 [2]: > 60 µM (inconclusive) | EC50 [3]: 0.644 µM (active)

Cc1nc2cnc(OCc3ccccc3)nc2n(Cc2ccc(F)cc2)c1=O
AC50 (Cytochrome P450 2C9): 10 µM (inconclusive)

N#CC1=C(N)Oc2[nH]nc(-c3cccs3)c2C1c1cccnc1 (configuration not stated)
EC50 (Protein RecA): > 380 µM (inactive)

O=C(Nc1nc(-c2ccco2)c(-c2ccco2)s1)c1cnccn1
EC50 [2]: 8.94 µM (active) | EC50 [3]: 5.79 µM (active)

Cc1cc(C)cc(C(=O)Nc2nc3ccccc3[nH]2)c1
EC50 (Streptococcus): 7.31 µM (active) | EC50 [4]: 10.6 µM (active)

Cn1[nH]c(CSc2ccc(Cl)cc2)cc1=O
EC50 (Protein RecA): 10 µM (active) | AC50 [1]: 20.2 µM (active)

O=C(N/N=C/c1cc(Br)cc([N+](=O)[O-])c1O)c1ccc(NC(=O)c2ccc(F)cc2)cc1
EC50 (Streptococcus): 6.54 µM (active) | EC50 [4]: 2.34 µM (active)

C/C(CC(=O)Nc1ccccn1)=N\NC(=O)Cc1cccc2ccccc12
EC50 (Protein RecA): 2.73 µM (active) | AC50 [1]: 3.54 µM (active)

CCC(=O)N/N=C(\C)CC(=O)Nc1cccc([N+](=O)[O-])c1
EC50 (Protein RecA): 2.36 µM (active) | AC50 [1]: 23.4 µM (active)

COc1cccc(-c2cncnc2NCc2ccccc2OC)c1
AC50 (Cytochrome P450 2C9): 0.631 µM (inconclusive)
